Experimental findings from patent US6150385A, “1,3,4-thiadiazoles useful for the treatment of CMV infections” (Pharmacia & Upjohn Company, priority 1999, dated 2000) are described below.

The target in this assay is T1, HCMV polymerase (Human cytomegalovirus, UniProt P08546).
T1 construct: made in house; host or cells: SF-9 insect cells infected with recombinant baculovirus
The experiment in a line: HCMV polymerase assay (scintillation proximity assay). Format: biochemical. The conditions noted are these: percentage of inhibition at 25 μM concentration in CMV polymerase assay. The method, boiled down: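 Values are percent inhibition at 25 μM, measured by scintillation proximity after capture of biotinylated poly(dA)-oligo(dT) (6 nM) extended with 90 nM 3H-dTTP. Recombinant SF-9-derived enzyme reacted 30 min at 25 or 37 °C in HEPES pH 7.5/KCl/MgCl2/BSA buffer, ±2 mM CHAPS, before EDTA termination.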

By inhibition is commonly meant the drop in the measured response relative to a control, in per cent.

T1 sequence (P08546 whole entry): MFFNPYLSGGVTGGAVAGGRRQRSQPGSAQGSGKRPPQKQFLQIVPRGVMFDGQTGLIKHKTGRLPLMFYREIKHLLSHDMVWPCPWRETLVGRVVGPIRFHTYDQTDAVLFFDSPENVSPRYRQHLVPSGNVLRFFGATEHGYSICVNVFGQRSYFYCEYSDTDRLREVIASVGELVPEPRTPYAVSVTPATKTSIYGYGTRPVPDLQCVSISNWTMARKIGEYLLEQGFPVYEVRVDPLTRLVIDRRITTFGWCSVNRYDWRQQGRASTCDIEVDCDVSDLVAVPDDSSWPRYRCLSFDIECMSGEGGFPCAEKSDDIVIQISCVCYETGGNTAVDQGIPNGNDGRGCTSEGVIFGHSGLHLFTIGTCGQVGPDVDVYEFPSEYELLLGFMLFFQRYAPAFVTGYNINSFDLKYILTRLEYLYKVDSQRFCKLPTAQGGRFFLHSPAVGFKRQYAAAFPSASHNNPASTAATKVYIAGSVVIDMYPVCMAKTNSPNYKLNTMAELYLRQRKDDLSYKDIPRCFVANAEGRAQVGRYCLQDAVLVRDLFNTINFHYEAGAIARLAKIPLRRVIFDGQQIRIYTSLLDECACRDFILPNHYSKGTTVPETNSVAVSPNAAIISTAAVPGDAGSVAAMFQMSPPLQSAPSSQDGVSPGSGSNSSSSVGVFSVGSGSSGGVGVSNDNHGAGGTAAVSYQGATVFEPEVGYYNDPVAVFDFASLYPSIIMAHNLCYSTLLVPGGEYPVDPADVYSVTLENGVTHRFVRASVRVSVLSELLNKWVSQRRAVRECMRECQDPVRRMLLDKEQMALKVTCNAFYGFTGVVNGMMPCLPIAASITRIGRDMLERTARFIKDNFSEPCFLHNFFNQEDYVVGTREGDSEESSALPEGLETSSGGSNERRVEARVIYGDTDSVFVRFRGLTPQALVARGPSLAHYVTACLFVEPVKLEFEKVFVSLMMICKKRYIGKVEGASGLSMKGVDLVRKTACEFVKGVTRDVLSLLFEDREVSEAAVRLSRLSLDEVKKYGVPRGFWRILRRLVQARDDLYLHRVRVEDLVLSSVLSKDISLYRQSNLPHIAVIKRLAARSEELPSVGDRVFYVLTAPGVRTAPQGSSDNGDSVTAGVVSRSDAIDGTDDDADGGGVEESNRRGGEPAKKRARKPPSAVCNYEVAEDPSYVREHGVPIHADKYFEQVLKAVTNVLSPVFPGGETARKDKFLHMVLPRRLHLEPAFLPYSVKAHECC

As to `O=C(Nc1nnc(NCCN2CCOCC2)s1)c1cccc([N+](=O)[O-])c1` [compound 469, N-{5-[(2-morpholinoethyl)amino]-1,3,4-thiadiazol-2-yl}-3-nitrobenzamide], 25 µM produced 20.1% inhibition. As for `O=C(Nc1nnc(NCC2CC2)s1)c1ccc(I)cc1` [compound 470, N-{5-[(cyclopropylmethyl)amino]-1,3,4-thiadiazol-2yl}-4-iodobenzamide], the inhibition at 25 µM worked out at 20%. `N#Cc1ccc(C(=O)Nc2nnc(NCc3ccc4c(c3)OCO4)s2)cc1` [compound 471, N-{5-[(1,3-benzodioxol-5-ylmethyl)amino]-1,3,4-thiadiazol-2-yl}-4-cyanobenzamide] returned an inhibition at 25 µM of 20%. Take `O=C(Nc1nnc(NCCc2ccccc2)s1)c1ccc(S(=O)(=O)F)cc1` [compound 472, 4-({[5-(phenethylamino)-1,3,4-thiadiazol-2-yl]amino}carbonyl)benzenesulfonyl fluoride]: the “% Inhib” value is recorded as 20.0%.
